Source: ChEMBL document CHEMBL1909046, “DrugMatrix in vitro pharmacology data”

How the values were obtained:
Carbonic anhydrase 2 = Carbonic anhydrase 2 (Homo sapiens, UniProt P00918); experiment: DRUGMATRIX: Carbonic Anhydrase II enzyme inhibition (substrate: 4-Nitrophenyl acetate (4-NPA)); type: tissue-based, Erythrocyte; settings: erythrocyte; Not Active = under 50% inhibition at 10 µM
Caspase-1 = biological target: T1, Caspase-1 (Homo sapiens, UniProt P29466); design: species or system Escherichia coli;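 note: Caspase-1 enzyme inhibition assay with a peptide substrate; in other assays of this panel Not Active means under 50% inhibition at 10 µM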
T1 sequence (P29466 whole entry): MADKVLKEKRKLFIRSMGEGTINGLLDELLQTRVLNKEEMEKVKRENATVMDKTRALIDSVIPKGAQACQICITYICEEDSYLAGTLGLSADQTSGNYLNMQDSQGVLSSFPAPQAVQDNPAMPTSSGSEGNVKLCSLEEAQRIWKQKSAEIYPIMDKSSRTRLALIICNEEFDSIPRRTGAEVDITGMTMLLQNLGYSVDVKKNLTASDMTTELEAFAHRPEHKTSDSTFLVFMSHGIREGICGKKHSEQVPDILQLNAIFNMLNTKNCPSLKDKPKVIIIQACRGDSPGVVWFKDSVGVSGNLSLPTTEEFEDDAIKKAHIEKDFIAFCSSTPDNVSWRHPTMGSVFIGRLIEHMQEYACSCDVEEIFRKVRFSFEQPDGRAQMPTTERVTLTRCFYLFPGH

[1] = biological target: Vascular endothelial growth factor receptor 1 (Homo sapiens, UniProt P17948); type: cell-based; settings: huvec; note: in other assays of this panel Not Active means under 50% inhibition at 10 µM
Chain of Vascular endothelial growth factor receptor 1 (P17948 whole entry): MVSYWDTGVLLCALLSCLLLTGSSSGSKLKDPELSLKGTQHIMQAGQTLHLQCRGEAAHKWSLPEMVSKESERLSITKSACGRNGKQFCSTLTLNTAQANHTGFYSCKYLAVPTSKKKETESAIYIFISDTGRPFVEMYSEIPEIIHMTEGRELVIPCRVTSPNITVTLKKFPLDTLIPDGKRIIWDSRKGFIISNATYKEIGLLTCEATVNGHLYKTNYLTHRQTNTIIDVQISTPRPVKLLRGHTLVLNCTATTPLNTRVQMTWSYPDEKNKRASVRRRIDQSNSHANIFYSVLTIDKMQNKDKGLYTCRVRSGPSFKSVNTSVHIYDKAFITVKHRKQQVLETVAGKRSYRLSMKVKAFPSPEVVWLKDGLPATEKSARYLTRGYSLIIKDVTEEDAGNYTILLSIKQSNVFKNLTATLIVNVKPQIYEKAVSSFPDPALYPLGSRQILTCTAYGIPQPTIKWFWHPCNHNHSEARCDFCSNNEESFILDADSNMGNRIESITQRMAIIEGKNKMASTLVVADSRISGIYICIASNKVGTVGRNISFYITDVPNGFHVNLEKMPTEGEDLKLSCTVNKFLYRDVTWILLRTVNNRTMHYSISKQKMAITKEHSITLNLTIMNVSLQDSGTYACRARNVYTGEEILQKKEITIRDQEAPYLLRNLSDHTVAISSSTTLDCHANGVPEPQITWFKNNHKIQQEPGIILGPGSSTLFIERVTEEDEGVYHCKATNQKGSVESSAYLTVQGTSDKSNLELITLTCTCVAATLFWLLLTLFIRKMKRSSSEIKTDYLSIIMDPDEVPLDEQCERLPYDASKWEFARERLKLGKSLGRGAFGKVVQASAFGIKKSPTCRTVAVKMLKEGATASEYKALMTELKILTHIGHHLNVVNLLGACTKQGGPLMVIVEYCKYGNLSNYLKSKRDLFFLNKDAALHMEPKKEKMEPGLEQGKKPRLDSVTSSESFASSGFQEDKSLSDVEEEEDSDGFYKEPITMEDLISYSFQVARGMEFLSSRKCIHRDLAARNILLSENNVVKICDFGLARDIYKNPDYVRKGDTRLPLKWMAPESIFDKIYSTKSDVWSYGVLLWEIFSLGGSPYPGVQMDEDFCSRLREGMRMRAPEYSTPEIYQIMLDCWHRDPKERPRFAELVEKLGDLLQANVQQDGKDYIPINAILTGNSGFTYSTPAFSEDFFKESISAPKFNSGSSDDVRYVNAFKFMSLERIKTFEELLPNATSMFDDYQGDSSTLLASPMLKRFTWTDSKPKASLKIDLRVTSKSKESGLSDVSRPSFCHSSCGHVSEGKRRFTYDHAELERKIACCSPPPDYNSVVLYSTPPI

Neutrophil elastase = biological target: T2, Neutrophil elastase (Homo sapiens, UniProt P08246); type: tissue-based;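 note: inhibition of neutrophil elastase enzyme activity, measured with a p-nitroanilide-linked peptide substrate; in other assays of this panel Not Active means under 50% inhibition at 10 µM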
T2 sequence (P08246 whole entry): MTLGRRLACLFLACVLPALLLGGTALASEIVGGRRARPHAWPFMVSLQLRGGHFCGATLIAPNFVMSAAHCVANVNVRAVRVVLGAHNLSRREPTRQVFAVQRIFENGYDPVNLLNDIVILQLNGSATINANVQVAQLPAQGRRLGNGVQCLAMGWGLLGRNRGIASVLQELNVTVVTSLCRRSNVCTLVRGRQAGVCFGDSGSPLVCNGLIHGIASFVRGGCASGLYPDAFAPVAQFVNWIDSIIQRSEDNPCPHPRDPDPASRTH

[2] = biological target: T3, Muscarinic acetylcholine receptor M2 (Homo sapiens, UniProt P08172); type: cell membranes, CHO-K1, Membrane; settings: cho-k1; note: in other assays of this panel Not Active means under 50% inhibition at 10 µM
T3 sequence (P08172 whole entry): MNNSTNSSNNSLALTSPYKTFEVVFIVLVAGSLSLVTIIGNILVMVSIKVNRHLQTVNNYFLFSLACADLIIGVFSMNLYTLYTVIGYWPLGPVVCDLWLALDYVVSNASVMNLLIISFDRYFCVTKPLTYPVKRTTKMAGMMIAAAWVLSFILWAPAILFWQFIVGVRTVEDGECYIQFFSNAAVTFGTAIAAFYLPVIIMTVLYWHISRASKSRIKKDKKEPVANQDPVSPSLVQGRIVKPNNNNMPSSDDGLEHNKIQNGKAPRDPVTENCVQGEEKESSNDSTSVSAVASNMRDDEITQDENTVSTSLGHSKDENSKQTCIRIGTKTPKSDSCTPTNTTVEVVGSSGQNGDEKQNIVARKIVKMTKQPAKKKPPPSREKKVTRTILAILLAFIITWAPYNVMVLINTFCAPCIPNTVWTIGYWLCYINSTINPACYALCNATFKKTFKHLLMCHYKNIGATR

[3] = biological target: T4, Alpha-1A adrenergic receptor (Rattus norvegicus, UniProt P43140); experiment: DRUGMATRIX: Alpha-1A adrenergic receptor radioligand binding (ligand: prazosin); type: cell membranes, Wistar, Submaxillary gland, Membrane; settings: Not Active = under 50% inhibition at 10 µM; for Ki: read-out: Ki
T4 sequence (P43140 whole entry): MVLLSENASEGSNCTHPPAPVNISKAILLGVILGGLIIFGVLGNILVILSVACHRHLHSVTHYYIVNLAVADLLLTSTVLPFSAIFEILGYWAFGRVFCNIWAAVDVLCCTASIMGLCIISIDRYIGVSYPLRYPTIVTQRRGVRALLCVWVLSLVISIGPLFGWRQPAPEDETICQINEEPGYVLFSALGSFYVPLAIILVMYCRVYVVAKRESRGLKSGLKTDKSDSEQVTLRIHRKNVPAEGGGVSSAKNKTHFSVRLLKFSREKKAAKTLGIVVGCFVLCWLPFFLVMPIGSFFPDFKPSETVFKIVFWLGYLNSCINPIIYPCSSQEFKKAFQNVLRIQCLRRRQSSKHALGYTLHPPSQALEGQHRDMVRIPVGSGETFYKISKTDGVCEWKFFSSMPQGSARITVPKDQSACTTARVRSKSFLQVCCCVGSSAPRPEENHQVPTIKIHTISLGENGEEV

Cathepsin G = biological target: T5, Cathepsin G (Homo sapiens, UniProt P08311); experiment: biochemical; type: tissue-based, Neutrophil
T5 sequence (P08311 whole entry): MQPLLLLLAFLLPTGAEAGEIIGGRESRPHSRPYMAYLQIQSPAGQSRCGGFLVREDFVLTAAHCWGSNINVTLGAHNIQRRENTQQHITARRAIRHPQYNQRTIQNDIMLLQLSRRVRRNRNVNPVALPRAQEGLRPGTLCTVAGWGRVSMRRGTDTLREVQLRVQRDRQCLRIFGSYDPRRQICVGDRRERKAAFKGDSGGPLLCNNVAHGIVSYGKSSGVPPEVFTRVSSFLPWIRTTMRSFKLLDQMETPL

SMILES | IC50 (Carbonic anhydrase 2) | IC50 (Caspase-1) | IC50 [1] | IC50 (Neutrophil elastase) | IC50 [2] | IC50 [3] | IC50 (Cathepsin G; neutrophil) | IC50 (Caspase-1; read-out: IC50) [nM] | IC50 (Cathepsin G; read-out: IC50) [nM] | IC50 ([3]; read-out: IC50) [nM] | Ki [3] [nM]
CC[C@@]1(O)C(=O)OCc2c1cc1n(c2=O)Cc2cc3c(CN(C)C)c(O)ccc3nc2-1 [TOPOTECAN] | Not Active | Not Active | Not Active | Not Active | Not Active | Not Active | Not Active | – | – | – | –
C#C[C@]1(O)CC[C@H]2[C@@H]3[C@H](C)CC4=C(CCC(=O)C4)[C@H]3CC[C@@]21C [TIBOLONE] | Not Active | Not Active | Not Active | Not Active | Not Active | Not Active | Not Active | – | – | – | –
Oc1ccc(/C=C/c2cc(O)cc(O)c2)cc1 [RESVERATROL] | Not Active | Not Active | Not Active | Not Active | Not Active | Not Active | Not Active | – | – | – | –
Cc1ccc(Cl)c(Nc2ccccc2C(=O)O)c1Cl [MECLOFENAMIC ACID] | Not Active | Not Active | Not Active | Not Active | Not Active | Not Active | Not Active | – | – | – | –
Cc1ccnc(NS(=O)(=O)c2ccc(N)cc2)n1 [SULFAMERAZINE] | – | Not Active | Not Active | Not Active | Not Active | Not Active | Not Active | – | – | – | –
CCOc1cc(N)c(Cl)cc1C(=O)NCC1CN(Cc2ccc(F)cc2)CCO1 (stereo unspecified) [MOSAPRIDE] | Not Active | Not Active | Not Active | Not Active | Not Active | Not Active | Not Active | – | – | – | –
C[C@]12CCC(=O)C[C@@H]1CC[C@@H]1[C@@H]2CC[C@]2(C)[C@@H](O)CC[C@@H]12 [STANOLONE] | Not Active | Not Active | Not Active | Not Active | Not Active | Not Active | Not Active | – | – | – | –
C[N+]1(C)[C@@H]2C[C@@H](OC(=O)[C@H](CO)c3ccccc3)C[C@H]1[C@@H]1O[C@@H]12.[Br-] [METHSCOPOLAMINE BROMIDE] | Not Active | Not Active | Not Active | Not Active | – | Not Active | Not Active | – | – | – | –
OC[C@@H](O)[C@@H](O)[C@H](O)[C@H](O)CO [MANNITOL] | Not Active | Not Active | Not Active | Not Active | Not Active | Not Active | Not Active | – | – | – | –
O=C(O)c1cc(/N=N/c2ccc(S(=O)(=O)Nc3ccccn3)cc2)ccc1O [SULFASALAZINE] | Not Active | – | Not Active | Not Active | Not Active | Not Active | Not Active | 28800 | – | – | –
CC1=C(/C=C/C(C)=C/C=C/C(C)=C/C(=O)O)C(C)(C)CCC1 [TRETINOIN] | Not Active | Not Active | Not Active | Not Active | Not Active | Not Active | Not Active | – | – | – | –
CC[C@H](C)C(=O)O[C@H]1CCC=C2C=C[C@H](C)[C@H](CC[C@@H]3C[C@@H](O)CC(=O)O3)[C@H]21 [MEVASTATIN] | Not Active | Not Active | Not Active | Not Active | Not Active | Not Active | Not Active | – | – | – | –
CCN(CC)C(=S)SSC(=S)N(CC)CC | Not Active | Not Active | Not Active | Not Active | Not Active | Not Active | Not Active | – | – | – | –
O=[As][O-].[Na+] [SODIUM ARSENITE] | Not Active | Not Active | Not Active | Not Active | Not Active | Not Active | Not Active | – | – | – | –
CCN(CC)N=O [N-NITROSODIETHYLAMINE] | Not Active | Not Active | Not Active | Not Active | Not Active | Not Active | Not Active | – | – | – | –
Nc1nc(N)c2nc(-c3ccccc3)c(N)nc2n1 | Not Active | – | Not Active | Not Active | Not Active | Not Active | – | 3660 | 7410 | – | –
CCN(CC)CCNC(=O)c1cc(Cl)c(N)cc1OC [METOCLOPRAMIDE] | Not Active | Not Active | Not Active | Not Active | Not Active | Not Active | Not Active | – | – | – | –
Cc1cc2c(s1)Nc1ccccc1N=C2N1CCN(C)CC1 [OLANZAPINE] | Not Active | Not Active | Not Active | Not Active | Not Active | – | Not Active | – | – | – | –
Cc1nnc(NS(=O)(=O)c2ccc(N)cc2)s1 [SULFAMETHIZOLE] | Not Active | Not Active | Not Active | Not Active | Not Active | Not Active | Not Active | – | – | – | –
CC#C[C@]1(O)CC[C@H]2[C@@H]3CCC4=CC(=O)CCC4=C3[C@@H](c3ccc(N(C)C)cc3)C[C@@]21C [MIFEPRISTONE] | Not Active | Not Active | Not Active | Not Active | Not Active | Not Active | Not Active | – | – | – | –
CS(=O)(=O)c1ccc(C2=C(c3ccccc3)C(=O)OC2)cc1 [ROFECOXIB] | Not Active | Not Active | Not Active | Not Active | Not Active | Not Active | Not Active | – | – | – | –
CC1(C)[C@H](C(=O)O)N2C(=O)C[C@H]2S1(=O)=O [SULBACTAM] | Not Active | Not Active | Not Active | Not Active | Not Active | Not Active | Not Active | – | – | – | –
CNCCCC12CCC(c3ccccc31)c1ccccc12 [MAPROTILINE] | Not Active | Not Active | Not Active | Not Active | – | – | Not Active | – | – | 567 | 230
CCN1CCCC1CNC(=O)c1cc(S(N)(=O)=O)ccc1OC (stereo unspecified) [SULPIRIDE] | – | Not Active | Not Active | Not Active | Not Active | Not Active | Not Active | – | – | – | –
CN(C)CCC=C1c2ccccc2COc2ccccc21 [DOXEPIN] | Not Active | Not Active | Not Active | Not Active | – | – | Not Active | – | – | 107 | 43
